Assay [1] is described as follows: Inhibition of CCDC6/RET V804M mutant (unknown origin) expressed in mouse BaF3 cells assessed as reduction in cell proliferation after 72 hrs by MTT assay. The following applies: BaF3, 72 h. It is filed as cell-based. On the technique in general: Formazan colour is commonly taken as a measure of viable cells.
Assay [2] deals with Proto-oncogene tyrosine-protein kinase receptor Ret (Homo sapiens, UniProt P07949).
Description: Inhibition of RET (unknown origin) using poly[Glu:Tyr] (4:1) as substrate after 60 mins by ELISA

In ChEMBL document CHEMBL3867468, “Discovery of 4-chloro-3-(5-(pyridin-3-yl)-1,2,4-oxadiazole-3-yl)benzamides as novel RET kinase inhibitors” (Bioorg Med Chem Lett, 2016) one finds IC50 data, which are given here for 14 compounds.

Structures are written as SMILES.

Sequence of Proto-oncogene tyrosine-protein kinase receptor Ret (P07949 whole entry): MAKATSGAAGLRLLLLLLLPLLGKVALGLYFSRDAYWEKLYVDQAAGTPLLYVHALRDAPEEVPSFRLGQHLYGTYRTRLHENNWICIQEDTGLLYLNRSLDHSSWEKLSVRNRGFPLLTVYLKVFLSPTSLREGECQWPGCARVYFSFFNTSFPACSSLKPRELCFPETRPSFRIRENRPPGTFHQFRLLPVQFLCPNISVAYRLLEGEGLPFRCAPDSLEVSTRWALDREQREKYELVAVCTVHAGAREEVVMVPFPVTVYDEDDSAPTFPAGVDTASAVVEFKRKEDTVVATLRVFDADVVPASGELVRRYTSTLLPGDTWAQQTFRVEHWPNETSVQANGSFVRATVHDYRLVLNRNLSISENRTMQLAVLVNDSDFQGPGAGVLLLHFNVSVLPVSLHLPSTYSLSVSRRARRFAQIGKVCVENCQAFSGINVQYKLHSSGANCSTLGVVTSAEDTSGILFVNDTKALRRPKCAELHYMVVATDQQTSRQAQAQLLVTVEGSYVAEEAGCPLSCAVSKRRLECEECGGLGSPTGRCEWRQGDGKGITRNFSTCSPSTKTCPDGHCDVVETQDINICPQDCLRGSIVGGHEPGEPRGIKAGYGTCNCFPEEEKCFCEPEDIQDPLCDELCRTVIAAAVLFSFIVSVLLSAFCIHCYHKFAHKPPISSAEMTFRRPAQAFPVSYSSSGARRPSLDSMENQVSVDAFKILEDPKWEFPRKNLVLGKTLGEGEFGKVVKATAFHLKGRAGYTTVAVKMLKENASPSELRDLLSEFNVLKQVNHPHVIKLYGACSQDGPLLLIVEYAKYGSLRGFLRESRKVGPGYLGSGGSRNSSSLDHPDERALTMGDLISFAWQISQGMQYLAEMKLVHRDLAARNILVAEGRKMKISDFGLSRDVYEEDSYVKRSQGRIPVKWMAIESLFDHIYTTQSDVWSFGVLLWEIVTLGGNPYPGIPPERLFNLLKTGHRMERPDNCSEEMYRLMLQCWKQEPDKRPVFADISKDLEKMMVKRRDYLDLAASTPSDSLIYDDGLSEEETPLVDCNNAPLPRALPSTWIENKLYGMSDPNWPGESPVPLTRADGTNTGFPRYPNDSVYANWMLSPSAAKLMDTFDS

As to `CN1CCN(Cc2ccc(NC(=O)c3ccc(Cl)c(-c4noc(-c5cncc(-c6cnn(C)c6)c5)n4)c3)cc2C(F)(F)F)CC1`, the IC50 (as a rule, the point on the concentration scale where inhibition reaches its midpoint) in assay [1] was determined as 442 nM; in assay [2], 1.8 nM. For `CN1CCN(Cc2ccc(NC(=O)c3ccc(Cl)c(-c4noc(-c5ccncc5)n4)c3)cc2C(F)(F)F)CC1`, the IC50 in assay [2] worked out at 26.6 nM. Still for that read-out and setting: then `CN1CCN(Cc2ccc(NC(=O)c3ccc(Cl)c(-c4nnc(-c5cccnc5)o4)c3)cc2C(F)(F)F)CC1`, with 138 nM; and `CN1CCN(Cc2ccc(NC(=O)c3ccc(Cl)c(C#Cc4cccnc4)c3)cc2C(F)(F)F)CC1`, with 2.5 nM; and `CN1CCN(Cc2ccc(NC(=O)c3ccc(Cl)c(-c4nc(-c5cccnc5)co4)c3)cc2C(F)(F)F)CC1`, with 21.4 nM. `CN1CCN(Cc2ccc(NC(=O)c3cccc(-c4noc(-c5cccnc5)n4)c3)cc2C(F)(F)F)CC1` registered an IC50 in assay [2] of 17.9 nM. The compound `CN1CCN(Cc2ccc(NC(=O)c3ccc(Cl)c(-c4noc(-c5cncc(N6CCOCC6)c5)n4)c3)cc2C(F)(F)F)CC1` returned an IC50 in assay [2] of 2.1 nM.

In assay [2], `CN1CCN(Cc2ccc(NC(=O)c3ccc(Cl)c(-c4cnc(-c5cccnc5)o4)c3)cc2C(F)(F)F)CC1` had an IC50 of 19.4 nM.

`COc1ccc(-c2nc(-c3cc(C(=O)Nc4ccc(CN5CCN(C)CC5)c(C(F)(F)F)c4)ccc3Cl)no2)cn1`: the concentration for half-maximal inhibition (IC50) in assay [2] is 342 nM. The compound `CN1CCN(Cc2ccc(NC(=O)c3ccc(Cl)c(-c4noc(-c5cccnc5)n4)c3)cc2C(F)(F)F)CC1` came in with an IC50 in assay [2] of 7.3 nM. With `Cc1ccc(C(=O)Nc2ccc(CN3CCN(C)CC3)c(C(F)(F)F)c2)cc1-c1noc(-c2cccnc2)n1`, 108 nM corresponded to half-maximal inhibition in assay [2] (IC50). The same measure, in the same setting: then `CN1CCN(Cc2ccc(NC(=O)c3ccc(Cl)c(-c4nc(-c5cccnc5)no4)c3)cc2C(F)(F)F)CC1`, with 12.4 nM; and `COCCOc1cncc(-c2nc(-c3cc(C(=O)Nc4ccc(CN5CCN(C)CC5)c(C(F)(F)F)c4)ccc3Cl)no2)c1`, with 11.4 nM. Turning to `Cc1ccc(C(=O)Nc2ccc(CN3CCN(C)CC3)c(C(F)(F)F)c2)cc1C#Cc1cnc2cccnn12` [PONATINIB], in assay [1], the IC50 amounted to 136 nM.
